# In US20110046040A1, “Microorganism-inactivating agent” (CHISSO CORPORATION, priority 2009, published 2011):
# Legend:
# Test in all cases: inactivation of microorganisms in water, number of cells in supernatant
# Format in all cases: cell-based
# [1] = tested on: Bacillus cereus; conditions: 10 ppm; pH 8; initial 9.5 × 10^4
# Experimental: (§1) Each test microbe was inoculated to nutrient broth and cultured with shaking at the optimum temperature of the test microbe until the late logarithmic phase. From the microbe culture, the microbe was collected, and the collected microbe was washed with 1.5 mL of physiological saline 2 to 3 times (centrifugation at 13000 rpm for 1 minute) and suspended in 1.5 mL of physiological saline. From the suspension, a 1 mL aliquot was recovered, and this was added to 9 mL of sterile water, followed by sufficient stirring of the resulting suspension (this was used as 10^−1 dilution). From the 10^−1 dilution, 10^−2 to 10^−8 dilutions were sequentially prepared. Each dilution was smeared on a film medium (Sanita-kun; for E. coli and coliform bacteria, for Staphylococcus aureus, for Salmonella, for aerobic bacteria or for fungi: Chisso Corporation) in an amount of 1 mL, followed by culturing at the optimum temperature of the test microbe for 24 to 72 hours and measurement of the number of cells on the film medium.
# (§2) To a sterilized beaker, 500 mL of sterilized water was placed, and 0.20 mL of microbe culture of 10^6 to 10^10 cells/mL was inoculated thereto, to attain an initial cell number of 10^3 to 10^7 cells/mL. Unless otherwise specified, the pH was 6 to 8. After stirring the suspension gently for 5 minutes, PGα21Ca (Nippon Poly-Glu Co., Ltd.) and/or a microbiostatic agent or microbicide was/were added thereto such that a predetermined final concentration(s) was/were attained. After gentle stirring at room temperature for 10 to 15 minutes, the suspension was left to stand for a predetermined length of time. The supernatant was collected and diluted appropriately in an antimicrobial agent-inactivating medium (BHI medium or the like), and 1 mL each of the resulting diluent was smeared on a film medium. Culturing was carried out at the optimum temperature of each test microbe for 24 to 72 hours and the number of cells (cells/mL) on the film medium was measured.
# [2] = tested on: Bacillus subtilis; conditions: 10 ppm; pH 8; initial 6.0 × 10^4
# Experimental: as §1, §2
# [3] = tested on: Escherichia coli; conditions: 10 ppm; pH 8; initial 5.8 × 10^4
# Experimental: as §1, §2
# [4] = tested on: Klebsiella pneumoniae; conditions: 10 ppm; pH 8; initial 1.3 × 10^5
# Experimental: as §1, §2
# [5] = tested on: Listeria monocytogenes; conditions: 10 ppm; pH 8; initial 2.0 × 10^4
# Experimental: as §1, §2
# [6] = tested on: Pseudomonas aeruginosa; conditions: 10 ppm; pH 8; initial 2.0 × 10^5
# Experimental: as §1, §2
# [7] = tested on: Salmonella choleraesuis; conditions: 10 ppm; pH 8; initial 4.7 × 10^4
# Experimental: as §1, §2
# [8] = tested on: Staphylococcus aureus; conditions: 10 ppm; pH 8; initial 4.3 × 10^4
# Experimental: as §1, §2
substance,measurement,setting,value
protamine sulfate,number of cells 2 hours later,[1],300 cells/mL
same,number of cells 2 hours later,[2],10 cells/mL
same,number of cells 2 hours later,[3],<10 cells/mL
same,number of cells 2 hours later,[4],10 cells/mL
same,number of cells 2 hours later,[5],<10 cells/mL
same,number of cells 2 hours later,[6],<10 cells/mL
same,number of cells 2 hours later,[7],<10 cells/mL
same,number of cells 2 hours later,[8],<10 cells/mL
